Data as given in patent US4558144A, “Volatile metal complexes” (Corning Glass Works, priority 1984, dated 1985).

Key:
[1] = Thermal stability, heating in evacuated/sealed ampoules at 200° C. for 24 hours; format: physicochemical; details: ampoule, compared with corresponding THF adduct
Protocol: The thermal stability of Mg(hfa)2.1,2-DME is evidenced not only by the TGA data set forth in FIG. 1, but also by investigations as to the extent and nature of the decomposition of Mg(hfa)2.1,2-DME after prolonged heating at temperatures in the 100°-200° C. range.
As in the case of the magnesium complex, the thermal stability of Zn(hfa)2.1,2-DME is evidenced not only by the observed rapid and complete TGA volatilization behavior shown in FIG. 2, but also by measuring residual gas pressure after heating a sample of the material in a sealed ampoule at 200° C. for 24 hours.

[2] = Vapor pressure; format: physicochemical
[3] = Thermogravimetric analysis (TGA), volatility; format: physicochemical; details: for volatilization behavior / decomposition in TGA / T1/2 (temperature at which one-half of the sample has been evaporated): 20 mg sample, 10° C./min, argon; for T1/2 (temperature at which one-half of the sample has been evaporated): TGA; for T1/2 volatility: Table III, comparative data
Protocol: A thermogravimetric analysis (TGA) of the product was carried out on a 20 mg sample of the material, heated at a rate of 10° C./min under an argon atmosphere. A thermogravimetric curve resulting from such a study, identified as "TGA-Mg(hfa)2.1,2-DME", is reproduced in FIG. 1 of the drawing.

[4] = at 200° C.; EP No. 0103446; cited from earlier work

| Compound | residual pressure after heating [1] | sample discoloration after heating [1] | volatilization behavior / decomposition in TGA ([3]; in words) | T1/2 (temperature at which one-half of the sample has been evaporated) [3] | T1/2 volatility [3] [°C] | further results |
| --- | --- | --- | --- | --- | --- | --- |
| COCCOC.O=C(C=C([O-])C(F)(F)F)C(F)(F)F.O=C(C=C([O-])C(F)(F)F)C(F)(F)F.[Mg+2] [Mg(hfa)2.1,2-DME] | lower residual pressure | less discoloration | rapid and complete volatilization of the complex over a narrow temperature range, indicating the absence of detectable decomposition | about 170 °C | 170 | vapor pressure ([2]; at about 120° C.): 10 mm (Hg) |
| O=C(C=C([O-])C(F)(F)F)C(F)(F)F.O=C(C=C([O-])C(F)(F)F)C(F)(F)F.[Mg+2].c1cnc2c(c1)ccc1cccnc12 [Mg(hfa)2.1,10-phenanthroline, reference compound] |  |  |  |  | 295 |  |
| C1CCOC1.C1CCOC1.O=C(C=C([O-])C(F)(F)F)C(F)(F)F.O=C(C=C([O-])C(F)(F)F)C(F)(F)F.[Mg+2] [Mg(hfa)2.2THF, reference compound] |  |  |  | 180 °C |  | volatilization without decomposition [4]: can be volatilized without decomposition |
| COCCOC.O=C(C=C([O-])C(F)(F)F)C(F)(F)F.O=C(C=C([O-])C(F)(F)F)C(F)(F)F.[Zn+2] [Zn(hfa)2.1,2-DME] | lower residual pressure | less discoloration | rapid and complete vaporization over a narrow range of temperatures, indicating no detectable thermal decomposition | 162 °C | 162 | vapor pressure ([2]; at 125° C.): about 16 mm (Hg); T1/2 temperature compared with Zn(hfa)2.2THF ([3]; same TGA conditions, in words): only slightly higher than the T1/2 temperature of Zn(hfa)2.2THF |
| O=C(C=C([O-])C(F)(F)F)C(F)(F)F.O=C(C=C([O-])C(F)(F)F)C(F)(F)F.[Zn+2].c1cnc2c(c1)ccc1cccnc12 [Zn(hfa)2.1,10-phenanthroline, reference compound] |  |  |  |  | 310 |  |
| O=C(C=C([O-])C(F)(F)F)C(F)(F)F.O=C(C=C([O-])C(F)(F)F)C(F)(F)F.[Zn+2].c1ccc(-c2ccccn2)nc1 [Zn(hfa)2.2,2'-bipyridine, reference compound] |  |  |  |  | 295 |  |
